Experimental data taken from ChEMBL document CHEMBL1153753, “Structure-activity relationships and mechanism of action of antitumor bis 8-hydroxyquinoline substituted benzylamines” (Eur J Med Chem, 2010).
Activity calls are given as the source filed them. The calls are words filed in the database; no cut-off is given here.

Columns and labels:
[1] = Cytotoxicity against human KB3 cells after 72 hrs by MTS assay; assay type: functional; conditions: KB3, 72 h
[2] = Antiproliferative activity against human U87 cells expressing GFP after 3 days by flash-cytometry; assay type: functional, U-87MG ATCC; conditions: U-87 MG, 72 h, read-out: ED50 (the source's name)
A549 = assay: Cytotoxicity against human A549 cells by MTT assay; assay type: functional, cell-based
BXPC-3 = assay: Cytotoxicity against human BxPC3 cells by MTT assay; assay type: functional, cell-based
LoVo = assay: Cytotoxicity against human LoVo cells by MTT assay; assay type: functional, cell-based
MCF7 = assay: Cytotoxicity against human MCF7 cells by MTT assay; assay type: functional, cell-based
PC-3 = assay: Cytotoxicity against human PC3 cells by MTT assay; assay type: functional, cell-based
[3] = Cytotoxicity against human Hs683 cells by MTT assay; assay type: functional, cell-based; conditions: Hs 683
T98G = assay: Cytotoxicity against human T98G cells by MTT assay; assay type: functional, cell-based
[4] = Cytotoxicity against human U373 cells by MTT assay; assay type: functional, cell-based, U-373MG ATCC; conditions: U373 MG
Nucleic Acid [5] = assay: Binding affinity to calf thymus DNA at 2 to 100 uM by standard spectrometry; assay type: nucleic-acid assay; conditions: Bos taurus
Nucleic Acid [6] = assay: Binding affinity to calf thymus DNA at 2 to 100 uM by EMSA; assay type: nucleic-acid assay; conditions: Bos taurus
Nucleic Acid [7] = assay: Binding affinity to calf thymus DNA assessed as DNA cleavage at 2 to 100 uM by electrophoresis; assay type: nucleic-acid assay; conditions: Bos taurus
Nucleic Acid [8] = assay: Binding affinity to calf thymus DNA assessed as DNA alkylation at 2 to 100 uM after 24 hrs; assay type: nucleic-acid assay; conditions: Bos taurus
[9] = Cytotoxicity against human KB3-1 cells assessed as reduction of glutathione level after 72 hrs by MTT assay pretreated with buthionin sulfoximine; assay type: functional; conditions: KB 3-1
[10] = Cytotoxicity against human KB3-1 cells assessed as reduction of glutathione level after 72 hrs by MTT assay; assay type: functional; conditions: KB 3-1, 72 h

SMILES | CC50 [1] | EC50 [2] | IC50 (A549) | IC50 (BXPC-3) | IC50 (LoVo) | IC50 (MCF7) | IC50 (PC-3) | IC50 [3] | IC50 (T98G) | IC50 [4] | also measured
COc1ccc(CN(Cc2ccc(C(F)(F)F)cc2)Cc2ccc(O)c3ncccc23)c2cccnc12 | > 10000 nM |  |  |  |  |  |  |  |  |  | 
Oc1ccc(CN(Cc2cc(C(F)(F)F)cc(C(F)(F)F)c2)Cc2ccc(O)c3ncccc23)c2cccnc12 | 1000 nM | < 200 nM | 9 nM | 79 nM | 10 nM | 38 nM | 71 nM | 181 nM | 72 nM | 96 nM | 
Oc1ccc(CN(CCN2CCCC2)Cc2ccc(O)c3ncccc23)c2cccnc12 | 1000 nM | 200 nM |  |  |  |  |  |  |  |  | 
Cc1ccc(CNCc2ccc(O)c3ncccc23)cc1 |  | > 10000 nM |  |  |  |  |  |  |  |  | 
Oc1ccc(CN(Cc2ccccc2)Cc2ccc(O)c3ncccc23)c2cccnc12 | 20 nM | < 500 nM | 544 nM | 7440 nM | 91 nM | 97 nM | 258 nM | 76 nM | 249 nM | 357 nM | 
O=C(O)C1CCC(CN(Cc2ccc(O)c3ncccc23)Cc2ccc(O)c3ncccc23)CC1 (configuration not stated) | 1100 nM |  | 661 nM | 4340 nM | 422 nM | 9460 nM | 9940 nM | 2860 nM | 9760 nM | 3730 nM | 
Cn1cccc1CN(Cc1ccc(O)c2ncccc12)Cc1ccc(O)c2ncccc12 |  | 2000 nM |  |  |  |  |  |  |  |  | 
CC(C)(C)OC(=O)N(Cc1cc(C(F)(F)F)cc(C(F)(F)F)c1)Cc1ccc(O)c2ncccc12 | 1000 nM |  |  |  |  |  |  |  |  |  | 
Oc1ccc(CNCc2cccc(C(F)(F)F)c2)c2cccnc12 | 200 nM | 180 nM |  |  |  |  |  |  |  |  | 
Oc1ccc(CN(Cc2ccccc2C(F)(F)F)Cc2ccc(O)c3ncccc23)c2cccnc12 | 100 nM | < 200 nM | 46 nM | 274 nM | 93 nM | 88 nM | 179 nM | 64 nM | 210 nM | 78 nM | 
Oc1ccc(CNCc2ccc(C(F)(F)F)cc2)c2cccnc12 | 10000 nM | > 10000 nM |  |  |  |  |  |  |  |  | 
Oc1ccc(CN(Cc2ccc(C(F)(F)F)cc2)Cc2ccc(O)c3ncccc23)c2cccnc12 | 1 nM | < 200 nM | 8 nM | 4300 nM | 10 nM | 34 nM | 66 nM | 10 nM | 99 nM | 44 nM | Activity (Nucleic Acid [5]): inactive; Activity (Nucleic Acid [6]): inactive; Activity (Nucleic Acid [7]): inactive; Activity (Nucleic Acid [8]): inactive; CC50 [9]: 70 nM; CC50 [10]: 33 nM
Cc1ccc(C(=O)NCc2ccc(O)c3ncccc23)cc1 | 1000 nM | 10000 nM |  |  |  |  |  |  |  |  | 
Oc1ccc(CN(CCc2ccccn2)Cc2ccc(O)c3ncccc23)c2cccnc12 | > 10000 nM |  |  |  |  |  |  |  |  |  | 
Oc1ccc(CN(Cc2cccc(C(F)(F)F)c2)Cc2ccc(O)c3ncccc23)c2cccnc12 | 2200 nM | 2000 nM | 38 nM | 167 nM | 94 nM | 30 nM | 37 nM | 36 nM | 57 nM | 65 nM | 
Oc1ccc(CN(Cc2cccc(I)c2)Cc2ccc(O)c3ncccc23)c2cccnc12 | 1000 nM | 2000 nM | 350 nM | 2590 nM | 393 nM | 374 nM | 394 nM | 479 nM | 446 nM | 5600 nM | 
CC(C)(C)OC(=O)N(Cc1ccc(C(F)(F)F)cc1)Cc1ccc(O)c2ncccc12 | 10000 nM | 2000 nM |  |  |  |  |  |  |  |  | 
Oc1ccc(CN(Cc2ccccc2)Cc2ccccc2)c2cccnc12 | 1000 nM | 5000 nM |  |  |  |  |  |  |  |  | 
CC(C)(C)OC(=O)N(Cc1cccc(C(F)(F)F)c1)Cc1ccc(O)c2ncccc12 | 1000 nM | > 10000 nM |  |  |  |  |  |  |  |  | 
Oc1ccc(CN(Cc2ccc(O)c3ncccc23)CC2CCCO2)c2cccnc12 (configuration not stated) | 10000 nM | 5000 nM |  |  |  |  |  |  |  |  | 
Oc1ccc(CN(Cc2ccc(O)c3ncccc23)Cc2ccc(O)c3ncccc23)c2cccnc12 | > 10000 nM | > 10000 nM |  |  |  |  |  |  |  |  | 
Oc1ccc(CNCc2ccccc2)c2cccnc12 | > 1000 nM |  |  |  |  |  |  |  |  |  | 
Oc1ccc(CN(Cc2ccc(C(F)(F)F)cc2)Cc2cccc3ncccc23)c2cccnc12 | 10000 nM | > 10000 nM |  |  |  |  |  |  |  |  | 
Oc1ccc(CN(Cc2cccs2)Cc2ccc(O)c3ncccc23)c2cccnc12 | 2 nM | < 200 nM | 27 nM | 89 nM | 40 nM | 35 nM | 44 nM | 35 nM | 88 nM | 85 nM | 
Oc1ccc(CN(Cc2ccc(OC(F)(F)F)cc2)Cc2ccc(O)c3ncccc23)c2cccnc12 | 100 nM |  |  |  |  |  |  |  |  |  | 
